Experimental data as given in patent publication US20230276831A1, “Food/Beverage Article” (Kikkoman Corporation, priority 2020, published 2023).

System: Lactobacillus rennini (DSM 20253)
Test: Antimicrobial action of licoricidin in soy sauce at various pH (Test Example 5)
Format: cell-based
Design: key: A: The bacterial count decreases to less than 10% of the bacterial count of the control group.; B: The bacterial count decreases to 10% or more and less than 50% of the bacterial count of the control group.; C: The bacterial count decreases to 50% or more and less than 100% of the bacterial count of control group.; D: The bacterial count is the same as the bacterial count of the control group
Conditions: salt 0% (w/v)
Experimental: Commercially available whole soybean soy sauce (produced by Kikkoman Corporation) was electrodialyzed and then concentrated under reduced pressure to obtain soy sauce at a salt concentration of 0% (w/v) and an alcohol concentration of 0% (v/v). Then, salt and/or alcohol was added to the above-mentioned obtained soy sauce, and hydrochloric acid or an aqueous sodium hydroxide solution was then added to adjust the pH to a desired pH. Germfree purified water was added, and the mixture was then heat-treated to produce soy sauce at the salt concentration, the alcohol concentration, and the pH shown in the following Table 17.
Licoricidin (produced by ChemFaces) was added to each of the obtained soy sauces to concentrations of 1 ppm, 5 ppm, 10 ppm, 25 ppm, and 50 ppm. Lactic acid bacteria (Lactobacillus rennini (DSM 20253)) were then added to 10^6 to 10^7 cells/mL and cultured at 30° C. for 7 days. After the culture, the number of lactic acid bacteria was measured using the GAM agar medium “Nissui”. Soy sauce to which licoricidin was not added was used as a control group, and the antimicrobial activity was evaluated in comparison with the number of lactic acid bacteria in the control group. The evaluation was performed using the same criterion as in Test Example 4.

For `COc1c(CC=C(C)C)c(O)cc2c1C[C@H](c1ccc(O)c(CC=C(C)C)c1O)CO2` [Licoricidin, 4-[(R)-7-hydroxy-5-methoxy-6-(3-methyl-2-butenyl)chroman-3-yl]-2-(3-methyl-2-butenyl)-1,3-benzenediol], the Antimicrobial activity (pH 4.2, alcohol 0% (v/v), licoricidin 1 ppm) was “B (The bacterial count decreases to 10% or more and less than 50% of the bacterial count of the control group.)”, the Antimicrobial activity (pH 4.2, alcohol 0% (v/v), licoricidin 5 ppm) was “B (The bacterial count decreases to 10% or more and less than 50% of the bacterial count of the control group.)” and the Antimicrobial activity (pH 4.2, alcohol 0% (v/v), licoricidin 10 ppm) was “A (The bacterial count decreases to less than 10% of the bacterial count of the control group.)”. The Antimicrobial activity (pH 4.2, alcohol 0% (v/v), licoricidin 25 ppm) was “A (The bacterial count decreases to less than 10% of the bacterial count of the control group.)”, the Antimicrobial activity (pH 4.2, alcohol 0% (v/v), licoricidin 50 ppm) was “A (The bacterial count decreases to less than 10% of the bacterial count of the control group.)” and the Antimicrobial activity (pH 4.2, alcohol 5% (v/v), licoricidin 1 ppm) was “B (The bacterial count decreases to 10% or more and less than 50% of the bacterial count of the control group.)”. The Antimicrobial activity (pH 4.2, alcohol 5% (v/v), licoricidin 5 ppm) was “A (The bacterial count decreases to less than 10% of the bacterial count of the control group.)”, the Antimicrobial activity (pH 4.2, alcohol 5% (v/v), licoricidin 10 ppm) was “A (The bacterial count decreases to less than 10% of the bacterial count of the control group.)” and the Antimicrobial activity (pH 4.2, alcohol 5% (v/v), licoricidin 25 ppm) was “A (The bacterial count decreases to less than 10% of the bacterial count of the control group.)”. The Antimicrobial activity (pH 4.2, alcohol 5% (v/v), licoricidin 50 ppm) was “A (The bacterial count decreases to less than 10% of the bacterial count of the control group.)”, the Antimicrobial activity (pH 4.6, alcohol 0% (v/v), licoricidin 1 ppm) was “C (The bacterial count decreases to 50% or more and less than 100% of the bacterial count of control group.)” and the Antimicrobial activity (pH 4.6, alcohol 0% (v/v), licoricidin 5 ppm) was “B (The bacterial count decreases to 10% or more and less than 50% of the bacterial count of the control group.)”. The Antimicrobial activity (pH 4.6, alcohol 0% (v/v), licoricidin 10 ppm) was “A (The bacterial count decreases to less than 10% of the bacterial count of the control group.)”, the Antimicrobial activity (pH 4.6, alcohol 0% (v/v), licoricidin 25 ppm) was “A (The bacterial count decreases to less than 10% of the bacterial count of the control group.)” and the Antimicrobial activity (pH 4.6, alcohol 0% (v/v), licoricidin 50 ppm) was “A (The bacterial count decreases to less than 10% of the bacterial count of the control group.)”. The Antimicrobial activity (pH 4.6, alcohol 5% (v/v), licoricidin 1 ppm) was “C (The bacterial count decreases to 50% or more and less than 100% of the bacterial count of control group.)”, the Antimicrobial activity (pH 4.6, alcohol 5% (v/v), licoricidin 5 ppm) was “A (The bacterial count decreases to less than 10% of the bacterial count of the control group.)” and the Antimicrobial activity (pH 4.6, alcohol 5% (v/v), licoricidin 10 ppm) was “A (The bacterial count decreases to less than 10% of the bacterial count of the control group.)”. The Antimicrobial activity (pH 4.6, alcohol 5% (v/v), licoricidin 25 ppm) was “A (The bacterial count decreases to less than 10% of the bacterial count of the control group.)”, the Antimicrobial activity (pH 4.6, alcohol 5% (v/v), licoricidin 50 ppm) was “A (The bacterial count decreases to less than 10% of the bacterial count of the control group.)” and the Antimicrobial activity (pH 5.0, alcohol 0% (v/v), licoricidin 1 ppm) was “D”. The Antimicrobial activity (pH 5.0, alcohol 0% (v/v), licoricidin 5 ppm) was “B (The bacterial count decreases to 10% or more and less than 50% of the bacterial count of the control group.)”, the Antimicrobial activity (pH 5.0, alcohol 0% (v/v), licoricidin 10 ppm) was “B (The bacterial count decreases to 10% or more and less than 50% of the bacterial count of the control group.)” and the Antimicrobial activity (pH 5.0, alcohol 0% (v/v), licoricidin 25 ppm) was “A (The bacterial count decreases to less than 10% of the bacterial count of the control group.)”. The Antimicrobial activity (pH 5.0, alcohol 0% (v/v), licoricidin 50 ppm) was “A (The bacterial count decreases to less than 10% of the bacterial count of the control group.)”, the Antimicrobial activity (pH 5.0, alcohol 5% (v/v), licoricidin 1 ppm) was “C (The bacterial count decreases to 50% or more and less than 100% of the bacterial count of control group.)” and the Antimicrobial activity (pH 5.0, alcohol 5% (v/v), licoricidin 5 ppm) was “B (The bacterial count decreases to 10% or more and less than 50% of the bacterial count of the control group.)”. The Antimicrobial activity (pH 5.0, alcohol 5% (v/v), licoricidin 10 ppm) was “B (The bacterial count decreases to 10% or more and less than 50% of the bacterial count of the control group.)”, the Antimicrobial activity (pH 5.0, alcohol 5% (v/v), licoricidin 25 ppm) was “A (The bacterial count decreases to less than 10% of the bacterial count of the control group.)” and the Antimicrobial activity (pH 5.0, alcohol 5% (v/v), licoricidin 50 ppm) was “A (The bacterial count decreases to less than 10% of the bacterial count of the control group.)”. The Antimicrobial activity (pH 5.4, alcohol 0% (v/v), licoricidin 1 ppm) was “D”, the Antimicrobial activity (pH 5.4, alcohol 0% (v/v), licoricidin 5 ppm) was “D” and the Antimicrobial activity (pH 5.4, alcohol 0% (v/v), licoricidin 10 ppm) was “C (The bacterial count decreases to 50% or more and less than 100% of the bacterial count of control group.)”. The Antimicrobial activity (pH 5.4, alcohol 0% (v/v), licoricidin 25 ppm) was “C (The bacterial count decreases to 50% or more and less than 100% of the bacterial count of control group.)”, the Antimicrobial activity (pH 5.4, alcohol 0% (v/v), licoricidin 50 ppm) was “C (The bacterial count decreases to 50% or more and less than 100% of the bacterial count of control group.)” and the Antimicrobial activity (pH 5.4, alcohol 5% (v/v), licoricidin 1 ppm) was “B (The bacterial count decreases to 10% or more and less than 50% of the bacterial count of the control group.)”. For the same molecule, the Antimicrobial activity (pH 5.4, alcohol 5% (v/v), licoricidin 5 ppm) was “A (The bacterial count decreases to less than 10% of the bacterial count of the control group.)”, the Antimicrobial activity (pH 5.4, alcohol 5% (v/v), licoricidin 10 ppm) was “A (The bacterial count decreases to less than 10% of the bacterial count of the control group.)” and the Antimicrobial activity (pH 5.4, alcohol 5% (v/v), licoricidin 25 ppm) was “A (The bacterial count decreases to less than 10% of the bacterial count of the control group.)”. For the same molecule, the Antimicrobial activity (pH 5.4, alcohol 5% (v/v), licoricidin 50 ppm) was “A (The bacterial count decreases to less than 10% of the bacterial count of the control group.)”, the Antimicrobial activity (pH 5.8, alcohol 0% (v/v), licoricidin 1 ppm) was “D” and the Antimicrobial activity (pH 5.8, alcohol 0% (v/v), licoricidin 5 ppm) was “D”. For the same molecule, the Antimicrobial activity (pH 5.8, alcohol 0% (v/v), licoricidin 10 ppm) was “D”, the Antimicrobial activity (pH 5.8, alcohol 0% (v/v), licoricidin 25 ppm) was “D” and the Antimicrobial activity (pH 5.8, alcohol 0% (v/v), licoricidin 50 ppm) was “D”. The Antimicrobial activity (pH 5.8, alcohol 5% (v/v), licoricidin 1 ppm) was “B (The bacterial count decreases to 10% or more and less than 50% of the bacterial count of the control group.)”, the Antimicrobial activity (pH 5.8, alcohol 5% (v/v), licoricidin 5 ppm) was “A (The bacterial count decreases to less than 10% of the bacterial count of the control group.)” and the Antimicrobial activity (pH 5.8, alcohol 5% (v/v), licoricidin 10 ppm) was “A (The bacterial count decreases to less than 10% of the bacterial count of the control group.)”. The Antimicrobial activity (pH 5.8, alcohol 5% (v/v), licoricidin 25 ppm) was “A (The bacterial count decreases to less than 10% of the bacterial count of the control group.)” and the Antimicrobial activity (pH 5.8, alcohol 5% (v/v), licoricidin 50 ppm) was “A (The bacterial count decreases to less than 10% of the bacterial count of the control group.)”.
